Earlier results on ten compounds are cited in US20140283166A1, “CREATION AND TRANSMISSION OF MEGALOCI” (Monsanto Technology, LLC, priority 2013, published 2014).

Each structure is given as a SMILES string. Where two headings read alike, the source gives them in different places.

The data set has as its system Arabidopsis.

With `COc1cccc(C(N)=O)c1` [3-methoxybenzamide], where the note is “2 mM”, the “effect on genetic distance around centromeres” value (from here on “effect”) is “increase the genetic distance around centromeres”.
On to `Nc1ncn([C@H]2C[C@H](O)[C@@H](CO)O2)c(=O)n1` [5-aza-2′-deoxycytidine], for which, where the note is “25 or 100 mg/L”, the “effect” value was “increase the genetic distance around centromeres”.
Take `CCN(N=O)C(N)=O` [N-nitroso-N-ethylurea]: where the note is “100 μM”, the “effect” value was “increase the genetic distance around centromeres”.
`Cc1c(N)nc([C@H](CC(N)=O)NC[C@H](N)C(N)=O)nc1C(=O)N[C@H](C(=O)N[C@H](C)[C@@H](O)[C@H](C)C(=O)N[C@H](C(=O)NCCC1=N[C@@H](c2nc(C(=O)NCCCCN=C(N)N)cs2)CS1)[C@@H](C)O)[C@@H](O[C@@H]1O[C@@H](CO)[C@@H](O)[C@H](O)[C@@H]1O[C@H]1O[C@H](CO)[C@@H](O)[C@H](OC(N)=O)[C@@H]1O)c1cnc[nH]1` [Zeocin]: where the note is “1 μg/ml”, the “effect” value is on record as “increase the genetic distance around centromeres”.
Turning to `N.N.[Cl][Pt][Cl]` [cis-diamminedichloroplatinum], the “effect” value (20 μg/ml) is “increase the genetic distance around centromeres”.
On to `CCOS(C)(=O)=O` [methanesulfonic acid ethyl ester], for which, under “0.05%”, the “effect” value is on record as “increase the genetic distance around centromeres”.
Turning to `COS(C)(=O)=O` [methanesulfonic acid methyl ester], the “effect” value (75 parts per million) is given as “increase the genetic distance around centromeres”.
As to `CO[C@@]12[C@H](COC(N)=O)C3=C(C(=O)C(C)=C(N)C3=O)N1C[C@@H]1N[C@@H]12` [mitomycin C], for the setting “10 mg/L”, the “effect” value is reported as “increase the genetic distance around centromeres”.
On to `CCCC(=O)O` [n-butyric acid], for which the “effect” value (20 μM) is “increase the genetic distance around centromeres”.
Regarding `CC(/C=C/C(=O)NO)=C\[C@@H](C)C(=O)c1ccc(N(C)C)cc1` [trichostatin A], the “effect” value (10 μM) is “increase the genetic distance around centromeres”.
